The values that follow come from US4895867A, “2-(5-phenyl-2-furanyl)imidazoles useful as cardiotonic agents” (Norwich Eaton Pharmaceuticals, Inc., priority 1988, dated 1990).

pEC50: −log10 of the molar value. Where a name gives a salt, the structure may show the parent alone.

The first experiment has as its system right ventricle of guinea pig. The experiment is described as follows: In vivo guinea pig ventricular pressure measurement (Test Method II). To be noted: Cavia porcellus, iv; calculated dose required to increase the right ventricular pressure by 50% from the control level, anesthetized guinea pig. On the procedure:
An additional or alternative method for testing the cardiotonic activity of compounds of the present invention is set forth in the following reference: Beek, O. G., "A Small Animal Model for Monitoring Inotropic Responses to Cardiotonic Agents", Journal of Pharmacological Methods, Vol. 7 (1982), pp. 321-329. Right ventricular inotropic responses are measured in an anesthetized, close-chested guinea pig using a pressure-sensitive transducer inserted into the right ventricle of the heart via the right jugular vein.
In vivo guinea pig ventricular pressure measurement
Unfasted male Hartley albino guinea pigs, weighing 450-650 g (Charles River Breeding Laboratories, Inc., Wilmington, MA) were used in these studies. Under ethyl carbamate (urethane) anesthesia (1.25 g/kg i.p.), the trachea was cannulated through a mid-ventral cervical incision. The left carotid artery was cannulated with PE-50 tubing (Clay Adams Co., Parsippany, NJ) filled with 100 µg/ml heparin for blood pressure monitoring, and the left jugular vein was cannulated (catheter filled with saline) for drug administration. A 3Fr Millar Mikro-Tip ventricular pressure catheter (Millar instruments, Inc., Houston, Texas) was positioned in the right ventricle via the right jugular vein. A thoracotomy was performed and the guinea pig was respired by a rodent respirator (Model 680, Harvard Apparatus Co., Millis, MA) at a rate of 8 ml/stroke×40 strokes/minute. A modified Brodie strain gauge (Warren Research Products, Charleston, South Carolina) was sutured on the right ventricle parallel to, but avoiding, the intraventricular septum. The rectal body temperature of 37° C. was maintained by an electronic temperature controlled lamp. The animals were left undisturbed for 60 minutes before being used for an experiment.
A single i.v. bolus does of 0.3 μg/kg isoproterenol was administered followed by a 0.2 ml saline flush prior to and at the end of each experiment to check the viability and responsiveness of each animal. Usually a vehicle does in a volume equal to the single largest volume of compound to be administered was intravenously injected 20-30 minutes after the initial isoproterenol injection when parameters had returned to baseline levels. A non-cumulative dose response curve was determined for each compound using a minimum of 3 doses. Time between doses for all compounds was dependent upon the time needed for all parameters to return to baseline or stable levels. A minimum of 3 animals per dose level was tested for each compound.
Results were expressed as percent changes from pretreatment baseline for all parameters measured. The ED50 values of ventricular pressure changes (calculated dose required to increase the right ventricular pressure by 50% from the control level) of test compounds were determined by regression analysis.
Compounds having the following chemical structure were tested for cardiotonic activity according to one or both of the above test methods: [drawing 3] Determinations of contractile force EC50 according to Test Method I and ventricular pressure ED50 according to Test Method II which have been obtained for the compounds are provided in Table I: […]
Regarding `Clc1ccc(-c2ccc(-c3ncc[nH]3)o2)cc1` [Example 2], the ED50 (in general, the dose that gives a 50% effect, or the effect in half of the subjects) is 0.31 mg/kg.
Same read-out and setting: in the case of `COc1ccc(-c2ccc(-c3ncc[nH]3)o2)cc1OC` [Example 4] it was 3.16 mg/kg.
The same measure, in the same setting: in the case of `O=[N+]([O-])c1ccccc1-c1ccc(-c2ncc[nH]2)o1` [Example 5] it was 29.1 mg/kg.
Turning to `c1ccc(-c2ccc(-c3ncc[nH]3)o2)cc1` [Example 6], the median effective dose (ED50) was 1.98 mg/kg.
On the same count and under the same terms, in the case of `Brc1ccccc1-c1ccc(-c2ncc[nH]2)o1` [Example 8, 2-[5-(2-Bromophenyl)-2-furanyl]imidazole Hydrochloride Tetartohydrate] it was 0.8 mg/kg; in that of `Clc1ccc(-c2ccc(-c3ncc[nH]3)o2)c(Cl)c1` [Example 12], 2.05 mg/kg.

The next experiment relates to guinea pig atrial muscle. The experiment is described as follows: In vitro guinea pig atrial muscle contractile force measurement (Test Method I). The format is cell-based. The note with it: Cavia porcellus; calculated concentration required to increase the contractile force by 50% from the control level; isolated left atria, 30° C., mean of at least three tissues. An excerpt:
Kaplan, "Strategy for the Discovery and Development of a Positive Inotropic Agent", Pharmacology and Therapeutics, Vol. 16 (1982), pp. 303-330. This test measures the effects of such compounds on the contractility of cardiac tissue excised from the atrial muscle of a guinea pig. In vitro guinea pig atrial muscle contractile force measurement Unfasted male Hartley albino guinea pigs, weighing 450-650 g (Charles River Breeding Laboratories, Inc., Wilmington, MA) were used in these studies. They were killed by cranial concussion at the beginning of the experiment. The heart was quickly removed into a Petri dish filled with a solution of the following composition (in water): NaCl 99.0 mM; Dextrose 11.0 mM; […]; MgSO4 1.2 mM; NaH2 PO4 1.3 mM; CaCl2.2H2 O 2.5 mM; NaHCO3 25.01 mM; bubbled with 95% 02 :5% CO2 at room temperature. A triple O silk ligature was tied to the edge of the left atrial appendage, using an intestinal needle. The appendage was cut off; a section was cut away from the wall which faced the heart, retaining a sheet of tissue from the outer face of the atrium. The tissue was mounted from a pair of point stimulating electrode hooks with 1 gram of tension in an organ bath maintained at 30° C. The ligature was tied to a Grass FT-103 force-displacement transducer, and responses were measured in grams of developed tension with a Grass Model 7 polygraph (Grass Instrument Co., Quincy, MA). The left atria were stimulated electrically with the following square wave parameters: 3 v; 4 msec 1 Hz, as soon as they were put into the baths. After a short time (3-5 minutes), voltage was increased until stable responses were obtained (10-25% above threshold). The tissues were allowed to equilibrate under such stimulation for at least 1 hour before experimentation. The test compounds were dissolved in water, if water soluble, or if not, in tetrahydrofurfuryl alcohol (Eastman D5C) or in an organic vehicle containing 90% polyethylene glycol, 6% ethanol, 3% propylene glycol and 1% H2 O). (Test compound solution concentrations were selected to keep injection volumes between 1 and 10 μl). Isoproterenol (0.54 to 5.4 nM) was given at the beginning of each experiment to confirm the viability and responsiveness of the tissues. Test agents were given in several graded doses in logarithmic increments. Responsiveness to isoproterenol was also assessed at the end of the experiment unless other positive drug responses were obtained near the end of the experiment. Results were expressed as percent change from control for contractile force. The EC50 value (calculated concentration required to increase the contractile force by 50% from the control level) for each tissue was obtained, where possible, by regression analysis. The mean of the EC50 values was obtained from at least three individual tissues for each compound tested. Compounds having the following chemical structure were tested for cardiotonic activity according to one or both of the above test methods: [drawing 3] Determinations of contractile force EC50 according to Test Method I and ventricular pressure ED50 according to Test Method II which have been obtained for the compounds are provided in Table I: […]
As for `O=[N+]([O-])c1ccc(-c2ccc(-c3ncc[nH]3)o2)cc1` [Example 1], the pEC50 (in general, the negative decadic logarithm of the EC50, by convention in mol/L) is 3.59.
Same read-out and setting: in the case of `Clc1ccc(-c2ccc(-c3ncc[nH]3)o2)cc1` [Example 2] it was 5.46.
Same read-out and setting: in the case of `FC(F)(F)c1cccc(-c2ccc(-c3ncc[nH]3)o2)c1` [Example 3] it was 5.19; in that of `COc1ccc(-c2ccc(-c3ncc[nH]3)o2)cc1OC` [Example 4], 3.72; in that of `O=[N+]([O-])c1ccccc1-c1ccc(-c2ncc[nH]2)o1` [Example 5], 4.22.
Still for that read-out and setting: the result for `c1ccc(-c2ccc(-c3ncc[nH]3)o2)cc1` [Example 6] reads 4.64; that for `CC(=O)c1ccc(-c2ccc(-c3ncc[nH]3)o2)cc1` [Example 7], 4.40; that for `Brc1ccccc1-c1ccc(-c2ncc[nH]2)o1` [Example 8, 2-[5-(2-Bromophenyl)-2-furanyl]imidazole Hydrochloride Tetartohydrate], 5.24.
With `Clc1ccccc1-c1ccc(-c2ncc[nH]2)o1` [Example 9], the negative-log EC50 (pEC50) was 5.43.
`Fc1ccccc1-c1ccc(-c2ncc[nH]2)o1` [Example 10]: the pEC50 was 5.14.
On the same count and under the same terms, in the case of `FC(F)(F)c1ccccc1-c1ccc(-c2ncc[nH]2)o1` [Example 11] it was 4.55; in that of `Clc1ccc(-c2ccc(-c3ncc[nH]3)o2)c(Cl)c1` [Example 12], 5.89; in that of `Clc1ccc(-c2ccc(-c3ncc[nH]3)o2)cc1Cl` [Example 13], 5.27.
The same measure, in the same setting: the result for `Brc1ccc(-c2ccc(-c3ncc[nH]3)o2)cc1` [Example 14] reads 5.89; that for `Fc1ccc(-c2ccc(-c3ncc[nH]3)o2)cc1` [Example 15], 4.48.
On the same count and under the same terms, the result for `FC(F)(F)c1ccc(-c2ccc(-c3ncc[nH]3)o2)cc1` [Example 16] reads 5.52; that for `COc1ccc(-c2ccc(-c3ncc[nH]3)o2)c([N+](=O)[O-])c1` [Example 17], 5.09.
As for `Cn1ccnc1-c1ccc(-c2ccccc2Br)o1` [Example 18], the pEC50 is 4.68.
Turning to `Cc1ccc(-c2ccc(-c3ncc[nH]3)o2)cc1` [Example 19, 2-[5-(4-methylphenyl)-2-furanyl]-1H-imidazole hydrochloride], the pEC50 was 5.43.
As to `CC(C)c1ccc(-c2ccc(-c3ncc[nH]3)o2)cc1` [Example 20, 2-[5-[4-(1-Methylethyl)phenyl]-2-furanyl]-1H-imidazole Hydrochloride], the pEC50 is 5.17.
On the same count and under the same terms, the result for `Brc1ccc(-c2ccc(-c3ncc[nH]3)o2)c(Br)c1` [Example 21] reads 5.10; that for `Cn1ccnc1-c1ccc(-c2ccc(Br)cc2)o1` [Example 22], less than 4.00.
Same read-out and setting: in the case of `Cc1c[nH]c(-c2ccc(-c3ccc(Br)cc3)o2)n1` [Example 23, 2-[5-(4-Bromophenyl)-2-furanyl]-4-methyl-1H-imidazole Hydrochloride] it was 6.30.
The same measure, in the same setting: the result for `Brc1cccc(Br)c1-c1ccc(-c2ncc[nH]2)o1` [Example 24] reads less than 4.00; that for `Cc1ccc(-c2ccc(-c3ncc[nH]3)o2)c(Br)c1` [Example 25], 5.82; that for `FC(F)(F)c1cc(-c2ccc(-c3ncc[nH]3)o2)ccc1Br` [Example 26], 5.40.
As to `Ic1ccc(-c2ccc(-c3ncc[nH]3)o2)cc1` [Example 27], the negative-log EC50 (pEC50) is 4.99.
For the compound `COc1ccc(-c2ccc(-c3ncc[nH]3)o2)cc1` [Example 28], the pEC50 is 4.55.
In the case of `COc1cc(-c2ccc(-c3ncc[nH]3)o2)ccc1Br` [Example 29, 2-[5-(4-Bromo-3-methoxyphenyl)-2-furanyl]-1H-imidazole Hydrochloride], the negative-log EC50 (pEC50) was 5.47.
On the same count and under the same terms, in the case of `CCn1ccnc1-c1ccc(-c2ccccc2Br)o1` [Example 30, 2-[5-(2-Bromophenyl)-2-furanyl]-1-ethyl-1H-imidazole Hydrochloride] it was 4.67; in that of `Cc1cc(Br)ccc1-c1ccc(-c2ncc[nH]2)o1` [Example 31, 2-[5-(4-Bromo-2-methylphenyl)-2-furanyl]-1H-imidazole Hydrochloride], 5.72; in that of `Cc1c[nH]c(-c2ccc(-c3ccccc3Br)o2)n1` [Example 32, 2-[5-(2-Bromophenyl)-2-furanyl]-4-methyl-1H-imidazole Hydrochloride], 5.77.
Take `Cc1cnc(-c2ccc(-c3ccc(Br)cc3)o2)n1C` [Example 33, 2-[5-(4-Bromophenyl)-2-furanyl]-1,5-dimethyl-1H-imidazole Hydrochloride]: the negative-log EC50 (pEC50) is 4.30.
On the same count and under the same terms, in the case of `Cc1cn(C)c(-c2ccc(-c3ccc(Br)cc3)o2)n1` [Example 34, 2-[5-(4-Bromophenyl)-2-furanyl]-1,4-dimethyl-1H-imidazole Hydrochloride Hydrate] it was less than 4.00.
